This note sets out measurements from patent EP0268396B1, “4-(benzoyl)thiophene(or furan)-sulfonamide and derivatives thereof for the topical treatment of elevated intraocular pressures” (Merck & Co., Inc., priority 1986, dated 1988).

Where a name gives a salt, the structure may show the parent alone.

The test system of this test is a-chymotrypsinized rabbit eye. The test can be described thus: Effect of topically administered drug on the α-chymotrypsin-induced elevation of IOP in the rabbit. The test is classed as in vivo. Particulars: dose 0.5 %, single 50 µl drop applied topically in hydroxyethylcellulose (HEC) vehicle; maximum, statistically significant drop in IOP during the 5 hour duration of the assay.
For the compound `NS(=O)(=O)c1cc(C(=O)c2cccc(CNCc3ccccn3)c2)cs1` [3-( [drawing] CH2NHCH2-), 4-[3-(2-Pyridylmethylaminomethyl)]benzoylthiophene-2-sulfonamide dihydrochloride], the “MAX. IOP DROP (mm Hg)” value is on record as -4.0 mm Hg.

Take `CC(C)CN(C)Cc1cccc(C(=O)c2csc(S(N)(=O)=O)c2)c1` [3-i-BuN(CH3)CH2-, 4-[3-(N-lsobutyl-N-methyl)aminomethyl]benzoylthiophene-2 sulfonamide]: the “MAX. IOP DROP (mm Hg)” value is -4.0 mm Hg.

`CC(C)CNCc1cccc(C(=O)c2csc(S(N)(=O)=O)c2)c1` [Example 3-i-BuNHCH2-, 4-[3-(lsobutylaminomethyl)benzoyl]thiophene-2-sulfonamid]: the “MAX. IOP DROP (mm Hg)” value is on record as -7.3 mm Hg.

`CCCCNCc1ccc(C(=O)c2csc(S(N)(=O)=O)c2)cc1` [Example 4-n-BuNHCH2-]: the “MAX. IOP DROP (mm Hg)” value was -3.0 mm Hg.
